# Measured values from US11090293B2 (Ovid Therapeutics Inc., priority 2018, dated 2021).
# Where two headings read alike, the source gives them in different places.
# Key:
# [1] = human, in vivo
# [2] = human, in vivo, po
structure (smiles),measurement,setting,value
"Oc1noc2c1CCNC2 [gaboxadol, 4,5,6,7-tetrahydroisoxazolo [5,4-c]pyridine-3-ol]",CLR,"[1]; both, iv, 10 mg",208 mL/min
same,half-life (t½),"[1]; both, po",1.5 h
same,CLR,"[1]; both, po, 2.5 mg",196 mL/min
same,AUC0-∞,"[1]; both, po, 5 mg",171 ng·h/mL
same,CLR,"[1]; both, po, 5 mg",222 mL/min
same,AUC0-∞,"[1]; both, po, 10 mg",346 ng·h/mL
same,AUC0-∞,"[1]; both, po, 15 mg",539 ng·h/mL
same,CLR,"[1]; both, po, 15 mg",234 mL/min
same,AUC0-∞,"[1]; both, po, 20 mg",669 ng·h/mL
same,CLR,"[1]; both, po, 20 mg",265 mL/min
same,CL/F (CL for 10 mg IV),"[1]; iv, 10 mg",438 mL/min
same,"Slope (90% CI) of AUC0-∞, dose proportionality assessment",[1]; po,"0.98 (0.95, 1.01)"
same,residual effect on Choice Reaction Time and Critical Flicker Fusion,[2],did not show residual effect
CCN(CC)CCN1C(=O)CN=C(c2ccccc2F)c2cc(Cl)ccc21 [Flurazepam],residual effect on Choice Reaction Time and Critical Flicker Fusion,[2],showed significant effect
